# Key:
# [1] = system: HT-29; assay: Growth inhibition of human HT-29 cells assessed as cell growth at 10 uM incubated for 48 hrs by sulforhodamine B assay relative to control; type: functional; details: HT-29, 48 h, read-out: Activity
# [2] = system: CCRF-CEM; assay: Growth inhibition of human CCRF-CEM cells incubated for 48 hrs by sulforhodamine B assay; type: functional, cell-based
# [3] = system: HOP-62; assay: Growth inhibition of human HOP62 cells incubated for 48 hrs by sulforhodamine B assay; type: functional, cell-based; details: HOP-62, 48 h
# [4] = system: NCI-H23; assay: Growth inhibition of human NCI-H23 cells incubated for 48 hrs by sulforhodamine B assay; type: functional, cell-based; details: NCI-H23, 48 h
# [5] = system: NCI-H460; assay: Growth inhibition of human NCI-H460 cells incubated for 48 hrs by sulforhodamine B assay; type: functional, cell-based; details: NCI-H460, 48 h
# [6] = system: SW-620; assay: Growth inhibition of human SW620 cells incubated for 48 hrs by sulforhodamine B assay; type: functional, cell-based; details: SW-620, 48 h
# [7] = system: M14; assay: Growth inhibition of human M14 cells incubated for 48 hrs by sulforhodamine B assay; type: functional, cell-based; details: M14, 48 h
# [8] = system: SK-MEL-5; assay: Growth inhibition of human SK-MEL-5 cells incubated for 48 hrs by sulforhodamine B assay; type: functional, cell-based; details: SK-MEL-5, 48 h
# [9] = system: SF-539; assay: Growth inhibition of human SF539 cells assessed as cell growth at 0.01 uM incubated for 48 hrs by sulforhodamine B assay relative to control; type: functional; details: SF-539, 48 h, read-out: Activity
# [10] = system: SK-MEL-28; assay: Growth inhibition of human SK-MEL-28 cells assessed as cell growth at 0.01 uM incubated for 48 hrs by sulforhodamine B assay relative to control; type: functional; details: SK-MEL-28, 48 h, read-out: Activity
# [11] = system: OVCAR-4; assay: Growth inhibition of human OVCAR4 cells assessed as cell growth at 0.01 uM incubated for 48 hrs by sulforhodamine B assay relative to control; type: functional; details: OVCAR-4, 48 h, read-out: Activity
# [12] = system: NCI-H522; assay: Growth inhibition of human NCI-H522 cells assessed as cell growth at 0.1 uM incubated for 48 hrs by sulforhodamine B assay relative to control; type: functional; details: NCI-H522, 48 h, read-out: Activity
# [13] = system: COLO 205; assay: Growth inhibition of human COLO205 cells assessed as cell growth at 0.1 uM incubated for 48 hrs by sulforhodamine B assay relative to control; type: functional; details: COLO 205, 48 h, read-out: Activity
# [14] = system: HT-29; assay: Growth inhibition of human HT-29 cells assessed as cell growth at 0.1 uM incubated for 48 hrs by sulforhodamine B assay relative to control; type: functional; details: HT-29, 48 h, read-out: Activity
# [15] = system: SF-539; assay: Growth inhibition of human SF539 cells assessed as cell growth at 0.1 uM incubated for 48 hrs by sulforhodamine B assay relative to control; type: functional; details: SF-539, 48 h, read-out: Activity
# [16] = system: Malme-3M; assay: Growth inhibition of human MALME-3M cells assessed as cell growth at 0.1 uM incubated for 48 hrs by sulforhodamine B assay relative to control; type: functional; details: read-out: Activity
# [17] = system: UACC-257; assay: Growth inhibition of human UACC257 cells assessed as cell growth at 0.1 uM incubated for 48 hrs by sulforhodamine B assay relative to control; type: functional; details: UACC-257, 48 h, read-out: Activity
# [18] = system: OVCAR-4; assay: Growth inhibition of human OVCAR4 cells assessed as cell growth at 0.1 uM incubated for 48 hrs by sulforhodamine B assay relative to control; type: functional; details: OVCAR-4, 48 h, read-out: Activity
# [19] = system: OVCAR-5; assay: Growth inhibition of human OVCAR5 cells assessed as cell growth at 0.1 uM incubated for 48 hrs by sulforhodamine B assay relative to control; type: functional; details: OVCAR-5, 48 h, read-out: Activity
# [20] = system: CAKI-1; assay: Growth inhibition of human Caki1 cells assessed as cell growth at 0.1 uM incubated for 48 hrs by sulforhodamine B assay relative to control; type: functional; details: CAKI-1, 48 h, read-out: Activity
# [21] = system: PC-3; assay: Growth inhibition of human PC3 cells assessed as cell growth at 0.1 uM incubated for 48 hrs by sulforhodamine B assay relative to control; type: functional; details: PC-3, 48 h, read-out: Activity
# [22] = system: A549; assay: Growth inhibition of human A549/ATCC cells assessed as cell growth at 1 uM incubated for 48 hrs by sulforhodamine B assay relative to control; type: functional; details: A549, 48 h, read-out: Activity
# [23] = system: HCC 2998; assay: Growth inhibition of human HCC2998 cells assessed as cell growth at 1 uM incubated for 48 hrs by sulforhodamine B assay relative to control; type: functional; details: HCC 2998, 48 h, read-out: Activity
# [24] = system: T47D; assay: Growth inhibition of human T47D cells assessed as cell growth at 1 uM incubated for 48 hrs by sulforhodamine B assay relative to control; type: functional; details: read-out: Activity
# [25] = system: NCI-H322M; assay: Growth inhibition of human NCI-H322M cells assessed as cell growth at 100 uM incubated for 48 hrs by sulforhodamine B assay relative to control; type: functional; details: read-out: Activity
# [26] = system: HCC 2998; assay: Growth inhibition of human HCC2998 cells assessed as cell growth at 100 uM incubated for 48 hrs by sulforhodamine B assay relative to control; type: functional; details: HCC 2998, 48 h, read-out: Activity
# [27] = system: U-251; assay: Growth inhibition of human U251 cells assessed as cell growth at 100 uM incubated for 48 hrs by sulforhodamine B assay relative to control; type: functional; details: U-251, 48 h, read-out: Activity
# [28] = system: DU-145; assay: Growth inhibition of human DU145 cells assessed as cell growth at 100 uM incubated for 48 hrs by sulforhodamine B assay relative to control; type: functional; details: DU-145, 48 h, read-out: Activity
# [29] = system: MDA-MB-231; assay: Growth inhibition of human MDA-MB-231 cells assessed as cell growth at 100 uM incubated for 48 hrs by sulforhodamine B assay relative to control; type: functional; details: MDA-MB-231, 48 h, read-out: Activity
# [30] = read-out: LC50 (the source's name)
# [31] = read-out: pLC50 (the source's name) (converted)
smiles,measurement,setting,value
COc1cc(Cl)cc(-c2nn(-c3cccc(NC(=O)Nc4cccc(C(F)(F)F)c4)c3)cc2-c2ccncc2)c1,growth at 10 µM,[1],5.75%
same,GI50,[2]; read-out: GI50,1.2 µM
same,CC50,[2]; [30],> 100 µM
same,TGI,[2]; read-out: TGI,53.6 µM
same,GI50,[2]; read-out: pGI50 (converted),1.2 µM
same,CC50,[2]; [31],> 100 µM
same,TGI,[2]; read-out: pTGI (converted),5.37 µM
same,GI50,[3]; read-out: GI50,2.51 µM
same,CC50,[3]; [30],> 100 µM
same,TGI,[3]; read-out: TGI,13.1 µM
same,GI50,[3]; read-out: pGI50 (converted),2.82 µM
same,CC50,[3]; [31],> 100 µM
same,TGI,[3]; read-out: pTGI (converted),13.2 µM
same,GI50,[4]; read-out: GI50,1.76 µM
same,LC50,[4]; read-out: LC50,> 100 µM
same,TGI,[4]; read-out: TGI,55.9 µM
same,GI50,[4]; read-out: pGI50 (converted),1.78 µM
same,LC50,[4]; read-out: pLC50 (converted),> 100 µM
same,TGI,[4]; read-out: pTGI (converted),6.76 µM
same,GI50,[5]; read-out: GI50,0.84 µM
same,CC50,[5]; [30],> 100 µM
same,TGI,[5]; read-out: TGI,45.8 µM
same,CC50,[5]; [31],> 100 µM
same,GI50,[6]; read-out: GI50,2.3 µM
same,LC50,[6]; read-out: LC50,> 100 µM
same,TGI,[6]; read-out: TGI,25.8 µM
same,GI50,[6]; read-out: pGI50 (converted),2.29 µM
same,LC50,[6]; read-out: pLC50 (converted),> 100 µM
same,TGI,[6]; read-out: pTGI (converted),26.9 µM
same,GI50,[7]; read-out: GI50,1.34 µM
same,CC50,[7]; [30],15.3 µM
same,TGI,[7]; read-out: TGI,30.5 µM
same,GI50,[7]; read-out: pGI50 (converted),1.35 µM
same,CC50,[7]; [31],16.2 µM
same,TGI,[7]; read-out: pTGI (converted),3.98 µM
same,GI50,[8]; read-out: GI50,1.43 µM
same,CC50,[8]; [30],54.5 µM
same,TGI,[8]; read-out: TGI,25.4 µM
same,GI50,[8]; read-out: pGI50 (converted),1.48 µM
same,CC50,[8]; [31],5.5 µM
same,TGI,[8]; read-out: pTGI (converted),2.82 µM
same,growth at 0.01 µM,[9],100%
same,growth at 0.01 µM,[10],99%
same,growth at 0.01 µM,[11],93%
same,growth at 0.1 µM,[12],53%
same,growth at 0.1 µM,[13],101%
same,growth at 0.1 µM,[14],95%
same,growth at 0.1 µM,[15],93%
same,growth at 0.1 µM,[16],50%
same,growth at 0.1 µM,[17],94%
same,growth at 0.1 µM,[18],98%
same,growth at 0.1 µM,[19],54%
same,growth at 0.1 µM,[20],104%
same,growth at 0.1 µM,[21],57%
same,growth at 1 µM,[22],43%
same,growth at 1 µM,[23],98%
same,growth at 1 µM,[24],58%
same,growth at 100 µM,[25],-8%
same,growth at 100 µM,[26],-83%
same,growth at 100 µM,[27],-100%
same,growth at 100 µM,[28],7%
same,growth at 100 µM,[29],-43%

# Source: ChEMBL document CHEMBL4308841, “Synthesis, in vitro antiproliferative activity, and kinase inhibitory effects of pyrazole-containing diarylureas and diarylamides” (Eur J Med Chem, 2018)
